# Assay results: the NIST ThermoML archive (doi:10.1021/je060033f)
# ± gives the expanded uncertainty stated by the source.
# Test: activity coefficient (dimensionless); of the first substance listed, at infinite dilution; xn = mol fraction of the nth substance listed
# Details: 323.15 K; 101 kPa; Liquid; Chromatography; x1 = 0
row,Structure (SMILES),activity coefficient
1,CCCCCC [hexane] + C=CC[n+]1ccn(CCCCCCCC)c1.[Br-],8.9 ± 0.61
2,CCCCCC [hexane] + C=CC[n+]1ccn(CCCCCCCCCC)c1.[Br-],8.39 ± 0.57
3,CCCCCC [hexane] + C=CC[n+]1ccn(CCCCCCCCCCCC)c1.[Br-],4.41 ± 0.3
4,CCCCCC [hexane] + C=CCn1cc[n+](C)c1.[Br-],25.1 ± 1.7
5,CCCCCC [hexane] + CCCCCCCCCCCC[n+]1ccn(CCCB(O)O)c1.[Br-],4.65 ± 0.32
6,CCCCCC [hexane] + CCCCCCCCCC[n+]1ccn(CCCB(O)O)c1.[Br-],5.45 ± 0.37
7,CCCCCC [hexane] + CCCCCCCC[n+]1ccn(CCCB(O)O)c1.[Br-],18.2 ± 1.2
8,CO [methanol] + C=CC[n+]1ccn(CCCCCCCC)c1.[Br-],0.17 ± 0.03
9,CO [methanol] + C=CC[n+]1ccn(CCCCCCCCCC)c1.[Br-],0.17 ± 0.03
10,CO [methanol] + C=CC[n+]1ccn(CCCCCCCCCCCC)c1.[Br-],0.15 ± 0.03
11,CO [methanol] + C=CCn1cc[n+](C)c1.[Br-],0.18 ± 0.03
12,CO [methanol] + CCCCCCCCCCCC[n+]1ccn(CCCB(O)O)c1.[Br-],0.04
13,CO [methanol] + CCCCCCCCCC[n+]1ccn(CCCB(O)O)c1.[Br-],0.05
14,CO [methanol] + CCCCCCCC[n+]1ccn(CCCB(O)O)c1.[Br-],0.04
15,CO [methanol] + C[n+]1ccn(CCCB(O)O)c1.[Br-],0.05
16,CCCCCCCCC [nonane] + C=CC[n+]1ccn(CCCCCCCC)c1.[Br-],17.4 ± 1.2
17,CCCCCCCCC [nonane] + C=CC[n+]1ccn(CCCCCCCCCC)c1.[Br-],16.9 ± 1.2
18,CCCCCCCCC [nonane] + C=CC[n+]1ccn(CCCCCCCCCCCC)c1.[Br-],6.93 ± 0.47
19,CCCCCCCCC [nonane] + C=CCn1cc[n+](C)c1.[Br-],65.6 ± 4.5
20,CCCCCCCCC [nonane] + CCCCCCCCCCCC[n+]1ccn(CCCB(O)O)c1.[Br-],6.99 ± 0.48
21,CCCCCCCCC [nonane] + CCCCCCCCCC[n+]1ccn(CCCB(O)O)c1.[Br-],9.92 ± 0.68
22,CCCCCCCCC [nonane] + CCCCCCCC[n+]1ccn(CCCB(O)O)c1.[Br-],26.2 ± 1.8
23,CCCCCCCCC [nonane] + C[n+]1ccn(CCCB(O)O)c1.[Br-],83.2 ± 5.7
24,CCCCCCCC [octane] + C=CC[n+]1ccn(CCCCCCCC)c1.[Br-],14.9 ± 1
25,CCCCCCCC [octane] + C=CC[n+]1ccn(CCCCCCCCCC)c1.[Br-],14.3 ± 0.98
26,CCCCCCCC [octane] + C=CC[n+]1ccn(CCCCCCCCCCCC)c1.[Br-],6.37 ± 0.43
27,CCCCCCCC [octane] + C=CCn1cc[n+](C)c1.[Br-],63 ± 4.3

row,Structure (SMILES),activity coefficient
1,CCCCCCCC [octane] + CCCCCCCCCCCC[n+]1ccn(CCCB(O)O)c1.[Br-],6.34 ± 0.43
2,CCCCCCCC [octane] + CCCCCCCCCC[n+]1ccn(CCCB(O)O)c1.[Br-],8.81 ± 0.6
3,CCCCCCCC [octane] + CCCCCCCC[n+]1ccn(CCCB(O)O)c1.[Br-],23.6 ± 1.6
4,CCCCCCCC [octane] + C[n+]1ccn(CCCB(O)O)c1.[Br-],81 ± 5.5
5,CCCC(C)=O [pentan-2-one] + C=CC[n+]1ccn(CCCCCCCC)c1.[Br-],1.93 ± 0.13
6,CCCC(C)=O [pentan-2-one] + C=CC[n+]1ccn(CCCCCCCCCC)c1.[Br-],1.78 ± 0.12
7,CCCC(C)=O [pentan-2-one] + C=CC[n+]1ccn(CCCCCCCCCCCC)c1.[Br-],1.62 ± 0.11
8,CCCC(C)=O [pentan-2-one] + C=CCn1cc[n+](C)c1.[Br-],4.32 ± 0.29
9,CCCC(C)=O [pentan-2-one] + CCCCCCCCCCCC[n+]1ccn(CCCB(O)O)c1.[Br-],1.63 ± 0.11
10,CCCC(C)=O [pentan-2-one] + CCCCCCCCCC[n+]1ccn(CCCB(O)O)c1.[Br-],1.67 ± 0.11
11,CCCC(C)=O [pentan-2-one] + CCCCCCCC[n+]1ccn(CCCB(O)O)c1.[Br-],2.32 ± 0.16
12,CCCC(C)=O [pentan-2-one] + C[n+]1ccn(CCCB(O)O)c1.[Br-],24.2 ± 1.7
13,CCCO [propan-1-ol] + C=CC[n+]1ccn(CCCCCCCC)c1.[Br-],0.28 ± 0.03
14,CCCO [propan-1-ol] + C=CC[n+]1ccn(CCCCCCCCCC)c1.[Br-],0.28 ± 0.03
15,CCCO [propan-1-ol] + C=CC[n+]1ccn(CCCCCCCCCCCC)c1.[Br-],0.23 ± 0.03
16,CCCO [propan-1-ol] + C=CCn1cc[n+](C)c1.[Br-],0.54 ± 0.04
17,CC(C)O [propan-2-ol] + C=CC[n+]1ccn(CCCCCCCC)c1.[Br-],0.36 ± 0.03
18,CC(C)O [propan-2-ol] + C=CC[n+]1ccn(CCCCCCCCCC)c1.[Br-],0.35 ± 0.03
19,CC(C)O [propan-2-ol] + C=CC[n+]1ccn(CCCCCCCCCCCC)c1.[Br-],0.29 ± 0.03
20,CC(C)O [propan-2-ol] + C=CCn1cc[n+](C)c1.[Br-],0.69 ± 0.05
21,ClC(Cl)(Cl)Cl [tetrachloromethane] + C=CC[n+]1ccn(CCCCCCCC)c1.[Br-],0.82 ± 0.05
22,ClC(Cl)(Cl)Cl [tetrachloromethane] + C=CC[n+]1ccn(CCCCCCCCCC)c1.[Br-],0.8 ± 0.05
23,ClC(Cl)(Cl)Cl [tetrachloromethane] + C=CC[n+]1ccn(CCCCCCCCCCCC)c1.[Br-],0.7 ± 0.05
24,ClC(Cl)(Cl)Cl [tetrachloromethane] + C=CCn1cc[n+](C)c1.[Br-],1.54 ± 0.1
25,ClC(Cl)(Cl)Cl [tetrachloromethane] + CCCCCCCCCCCC[n+]1ccn(CCCB(O)O)c1.[Br-],0.9 ± 0.06
26,ClC(Cl)(Cl)Cl [tetrachloromethane] + CCCCCCCCCC[n+]1ccn(CCCB(O)O)c1.[Br-],0.79 ± 0.05
27,ClC(Cl)(Cl)Cl [tetrachloromethane] + CCCCCCCC[n+]1ccn(CCCB(O)O)c1.[Br-],1.23 ± 0.08

row,Structure (SMILES),activity coefficient
1,ClC(Cl)(Cl)Cl [tetrachloromethane] + C[n+]1ccn(CCCB(O)O)c1.[Br-],21.2 ± 1.4
2,c1ccsc1 [thiophene] + C=CC[n+]1ccn(CCCCCCCC)c1.[Br-],0.93 ± 0.06
3,c1ccsc1 [thiophene] + C=CC[n+]1ccn(CCCCCCCCCC)c1.[Br-],0.89 ± 0.06
4,c1ccsc1 [thiophene] + C=CC[n+]1ccn(CCCCCCCCCCCC)c1.[Br-],0.77 ± 0.05
5,c1ccsc1 [thiophene] + C=CCn1cc[n+](C)c1.[Br-],1.48 ± 0.1
6,c1ccsc1 [thiophene] + CCCCCCCCCCCC[n+]1ccn(CCCB(O)O)c1.[Br-],0.9 ± 0.06
7,c1ccsc1 [thiophene] + CCCCCCCCCC[n+]1ccn(CCCB(O)O)c1.[Br-],0.79 ± 0.05
8,c1ccsc1 [thiophene] + CCCCCCCC[n+]1ccn(CCCB(O)O)c1.[Br-],1.2 ± 0.08
9,c1ccsc1 [thiophene] + C[n+]1ccn(CCCB(O)O)c1.[Br-],19.4 ± 1.3
10,Cc1ccccc1 [toluene] + C=CC[n+]1ccn(CCCCCCCC)c1.[Br-],1.92 ± 0.13
11,Cc1ccccc1 [toluene] + C=CC[n+]1ccn(CCCCCCCCCC)c1.[Br-],1.85 ± 0.12
12,Cc1ccccc1 [toluene] + C=CC[n+]1ccn(CCCCCCCCCCCC)c1.[Br-],1.38 ± 0.09
13,Cc1ccccc1 [toluene] + C=CCn1cc[n+](C)c1.[Br-],6.19 ± 0.42
14,Cc1ccccc1 [toluene] + CCCCCCCCCCCC[n+]1ccn(CCCB(O)O)c1.[Br-],3.36 ± 0.23
15,Cc1ccccc1 [toluene] + CCCCCCCCCC[n+]1ccn(CCCB(O)O)c1.[Br-],1.8 ± 0.12
16,Cc1ccccc1 [toluene] + CCCCCCCC[n+]1ccn(CCCB(O)O)c1.[Br-],2.41 ± 0.16
17,Cc1ccccc1 [toluene] + C[n+]1ccn(CCCB(O)O)c1.[Br-],38.8 ± 2.6
18,ClC(Cl)Cl [trichloromethane] + C=CC[n+]1ccn(CCCCCCCC)c1.[Br-],0.14 ± 0.03
19,ClC(Cl)Cl [trichloromethane] + C=CC[n+]1ccn(CCCCCCCCCC)c1.[Br-],0.13 ± 0.03
20,ClC(Cl)Cl [trichloromethane] + C=CC[n+]1ccn(CCCCCCCCCCCC)c1.[Br-],0.12 ± 0.03
21,ClC(Cl)Cl [trichloromethane] + C=CCn1cc[n+](C)c1.[Br-],0.25 ± 0.03
22,ClC(Cl)Cl [trichloromethane] + CCCCCCCCCCCC[n+]1ccn(CCCB(O)O)c1.[Br-],0.19 ± 0.03
23,ClC(Cl)Cl [trichloromethane] + CCCCCCCCCC[n+]1ccn(CCCB(O)O)c1.[Br-],0.12 ± 0.03
24,ClC(Cl)Cl [trichloromethane] + CCCCCCCC[n+]1ccn(CCCB(O)O)c1.[Br-],0.23 ± 0.03
25,ClC(Cl)Cl [trichloromethane] + C[n+]1ccn(CCCB(O)O)c1.[Br-],3.01 ± 0.2
